Values quoted from earlier work in patent US11702444B2, “Method for preparing natural bioactive peptide Tubulysin U” (Shenzhen Institute of Geriatrics, priority 2020, dated 2023).

Columns and labels:
[1] = tested on: MCF-7 breast cancer cells; conditions: antiproliferative activity in vitro
1A9 ovarian cancer cells = conditions: antiproliferative activity in vitro

## CC[C@H](C)[C@H](NC(=O)[C@H]1CCCCN1C)C(=O)N[C@H](C[C@@H](OC(C)=O)c1nc(C(=O)N[C@@H](Cc2ccccc2)C[C@H](C)C(=O)O)cs1)C(C)C [Tubulysin U]
[1]
  IC50: 0.4 nM
1A9 ovarian cancer cells
  IC50: 0.65 nM
